“Also recorded” adds a separate entry of the source. Read-outs that look alike come from different tables or passages of the source.
Key:
Punta toro = conditions: literature (Smee et al.; Sidwell et al.); cited from earlier work
mice [1] = conditions: cited from earlier work
cowpox = conditions: cidofovir 30 mg/kg i.p.; Smee et al. 2002; cited from earlier work
[2] = test system: Mouse bone marrow-derived macrophages (BMDM); assay: Cytokine production of TLR ligand-stimulated BMDM with IMPDH inhibitors (ELISA); type: cell-based; conditions: for IL-12 production with TOG plus IMPDH inhibitor: TOG 100 μM, mizoribine 10 μM or mizoribine base 10 μM; for cytokine production induced by several different TLR-L: mouse bone marrow derived macrophages
splenocytes = assay: Type I interferon production by splenocytes (bioassay); type: cell-based, mice; conditions: for TLR7 mediated type I interferon production in splenocytes: TOG or R-848 with or without Mb 10 μM, 24 hrs
Experimental: (§1) Type I interferon in serum was measured and results are shown.
Splenocytes of WT or SCID mice were stimulated with the indicated stimuli and Type I interferon was by bioassay.
(FIG. 20.) Splenocytes of WT or SCID mice were stimulated with the indicated stimuli and Type I interferon levels were determined by bioassay.

[3] = test system: Type I interferon in serum; assay: Type I interferon in serum of mice injected with TOG and Mb; type: in vivo; conditions: mice injected intravenously with TOG 250 μg and increasing doses of Mb
Experimental: as §1

[4] = test system: human peripheral blood mononuclear cells; assay: Cytokine production of TLR-L-stimulated human peripheral blood mononuclear cells with IMPDH inhibitors; type: cell-based
[5] = test system: IRF-1, IRF-3, IRF-7, NF-kB, STAT-1; assay: Activation of IRFs, NF-kB and STAT-1 in BMDM (immunoblotting of nuclear extracts, EMSA); type: cell-based, mouse
[6] = test system: human peripheral blood leukocytes (hPBL); assay: IL-12 production in human peripheral blood leukocytes (ELISA); type: cell-based; conditions: TOG 100 μM, 24 hours
STAT-1 = STAT-1 activation in hPBL (western blotting); type: cell-based, human; conditions: by TOG, R-848 1 μM plus increasing doses, 3 hrs
Experimental: In the right panel, hPBL were stimulated with R-848 (1 μM) plus increasing doses of Mb or ribavirin (Rb) for 3 hrs and activation of STAT-1 was measured by western blotting. β-actin levels were measured as a control

[7] = test system: DNA dependent protein kinase catalytic subunit (DNA-PKcs); assay: Activation of DNA-PK in BMDM (in vitro kinase assay, GST-p53 substrate or autophosphorylation); type: cell-based
Experimental: IMPDH inhibitors and TLR7 activate DNA-PK. BMDM were stimulated with the Mb alone, TOG alone, or a combination of Mb and TOG. Activation of DNA-PK was measured by in vitro kinase assay using a GST-p53 substrate or DNA-PKcs autophosphorylation.
Activation of DNA-PK was measured by in vitro kinase assay using a GST-p53 substrate or DNA-PKcs autophosphorylation.

[8] = test system: bone marrow derived dendritic cells (DC's); assay: TLR7 signaling in bone marrow derived dendritic cells; type: cell-based; conditions: DC's stimulated by R-848 with Mb
Experimental: Bone marrow derived DC's were stimulated by R-848 with or without Mb for the indicated time period, and activation of NF-κB, MAP kinases (p38 and EKR) was measured. Actin levels were measured as a control.

Salmonella = conditions: human macrophages treated overnight with IFN-γ 100 ng/ml; over 24 hours; cited from earlier work
Listeria monocytogenes = assay: Listeria infection in mice pretreated with TLR ligands; type: in vivo; conditions: 10 μg three days before infection with 7×10^5 Listeria monocytogenes, observed nine days
Experimental: Groups of six mice were injected with 10 μg of either ISS-ODN, Pam3Cys, or polyI:C three days before infection with 7×10^5 Listeria monocytogenes. […] 5 mice also each received 10 μg of R-848, 24 hours before infection. […]

[9] = test system: murine bone marrow mononuclear cells; assay: Cytokine responses of murine bone marrow mononuclear cells to TLR ligands (ELISA); type: cell-based; conditions: 48 hours, supernatant ELISA, PolyI:C 100 μg/ml, LPS 1 μg/ml, ISS-ODN 10 μg/ml, n.d.=none detected
Experimental: The cytokine responses of murine bone marrow mononuclear cells were compared to a TLR2-L (PGS), a TLR3-L (polyI:C), a TLR4-L(LPS), and a TLR9-L (ISS-ODN). IL-12, IL-10, IL-6, IL-1b, and KC (a chemokine) were assayed by ELISA (See 2.1.b Results).
Bone marrow cells were cultured in triplicate at 5×10^5 cells/ml with each TLR ligand in dose response studies covering a 3 log concentration range. The cells were cultured for 48 hours and supernatant cytokine levels were analyzed by ELISA. The minimal optimal concentration for each reagent was reported with a three fold increase in TLR ligand concentration not leading to any significant increase in cytokine production. Results are reported as means ± standard errors. n.d.=none detected

BALB/c mice = assay: Systemic adjuvant activity: intradermal immunization with ovalbumin (OVA) and TLR ligand; type: in vivo
Experimental: Recently, the systemic adjuvant activities of other TLR-Ls were evaluated.
Six-week-old BALB/c mice (4 per group) were intradermally immunized with ovalbumin (OVA) (20 ug) and TLR ligand on day 0 and day 7. During week 6, serum was collected and splenocytes were harvested and cultured with OVA (50 ug/ml). After 3 days, splenocyte culture supernatants were collected. Sera Ig levels and splenocyte supernatant cytokine levels were determined by ELISA. Results are reported as means ± standard errors. n.d.=none detected.

mice [10] = assay: ISS pre-priming before β-gal immunization (splenocyte IFN-γ and CTL response); type: in vivo; conditions: ISS up to 14 days prior to β-gal, compared to β-gal alone (P≦0.05)
Description: FIG. 3 depicts splenocyte CTL and IFN-γ response after intradermal ISS pre-priming. Results represent the mean ± SE for four mice in each group and similar results were obtained in two other independent experiments. […] (a) IFN-γ response. […] (C) Comparison of CTL response at an effector:target ratio of 25:1.
In this experiment, the amount of time between which a mouse exposed to an antigen can produce an immune response was examined. (FIG. 3)
The results in FIG. 3 represent the mean ± SE for four mice in each group. Similar results were obtained in two other independent experiments. […] (A) IFN-γ response. […] (C) Comparison of CTL response at an effector:target ratio of 25:1.

[11] = splenocytes of week 6 cultured 3 days with OVA 50 ug/ml, supernatant ELISA, same immunization, n.d.=none detected

Nc1nc2c(ccn2[C@@H]2O[C@H](CO)[C@@H](O)[C@H]2O)c(=O)[nH]1 [7-deazaguanosine]
protection of mice from Punta toro virus infection (Punta toro): protected mice from lethal infection | toxicity to mice (mice [1]; after systemic administration): remarkably non-toxic to mice

CCCCCCn1cnc2c(=O)[nH]c(N)nc21 [9-hexylguanine]
protection of mice from Punta toro virus infection (Punta toro): protected mice from lethal infection

Nc1ccn(C[C@@H](CO)OCP(=O)(O)O)c(=O)n1 [Cidofovir, cidofovir]
lung viral titer (cowpox): ~10^7 PFU/g of lung | protection of mice from death (cowpox): protects all mice from death

NC(=O)c1ncn([C@@H]2O[C@H](CO)[C@@H](O)[C@H]2O)c1O [Mizoribine, mizoribine]
IL-12 production with TOG plus IMPDH inhibitor ([2]; 24 hrs): synergize with TOG | cytokine production induced by several different TLR-L [2]: potentiated cytokine production | TLR7 mediated type I interferon production in splenocytes (splenocytes): more than two-fold | increase of Type I interferon in blood (serum) [3]: more than 4 fold | cytokine production induced by several different TLR-L [4]: potentiated cytokine production

NC(=O)c1ncn([C@@H]2O[C@H](CO)[C@@H](O)[C@H]2O)n1 [Ribavirin]
IL-6 production by R-848 in the presence of ribavirin ([2]; macrophages, abolished by addition of guanosine to the media (not shown)): enhancement of IL-6 production by R-848 | cytokine production induced by several different TLR-L [2]: potentiated cytokine production | cytokine induction by ribavirin alone ([2]; no TLR ligand): did not induce any cytokines | TLR-mediated production of IL-12 (p40) in the presence of ribavirin ([2]; ribavirin 10, 50, 100 μM, TLR ligands TOG 100 μM, R-848 1 μM, Pam3Cys 5 μg, p(I:C) 5 μg, LPS 10 ng, ISS 5 μg, 24 hrs): enhances TLR-mediated production of IL-12 (p40) in a dose dependent manner | TOG-induced NF-κB activation (EMSA) and IRF-3 (western blotting) ([5]; BMDM, TOG with Rb 50 μM): enhances TOG-induced NF-κB activation and activates IRF-3 transcription factor | IL-12 production after stimulation with TOG [6]: enhanced the increase of IL-12 production | activation of STAT-1 (STAT-1): enchanced activiation | cytokine production induced by several different TLR-L [4]: potentiated cytokine production | protection of mice from Punta toro virus infection (Punta toro): significant activity

Nc1nc2c(sc(=O)n2[C@@H]2O[C@H](CO)[C@@H](O)[C@H]2O)c(=O)[nH]1 [TOG, 7-thia-8-oxoguanosine]
levels of nuclear IRF-1, IRF-3 and IRF-7 ([5]; bone marrow cells exposed to TOG): increase markedly | activation of DNA-PKcs ([7]; single agents): activate DNA dependent protein kinase catalytic subunit (DNA-PKcs) | protection of mice from Punta toro virus infection (Punta toro): protected mice from lethal infection; also recorded: significant activity | toxicity to mice (mice [1]; mouse, in vivo): remarkably non-toxic to mice

NC(=O)c1[nH]cnc1O [mizoribine base]
IL-12 production with TOG plus IMPDH inhibitor ([2]; 24 hrs): synergize with TOG | cytokine production induced by several different TLR-L [2]: potentiated cytokine production | dependence of IRF activation on DNA-PKcs and MyD88 ([5]; cells from wild-type mice and SCID mice): via DNA-PKcs but not MyD88 | TLR7 mediated type I interferon production in splenocytes (splenocytes): augments TLR-7 mediated type I interferon production | dependence of type I interferon induction by TOG combined with Mb on DNA-PKcs (splenocytes; splenocytes of WT or SCID mice, TOG 100 μM, Mb 10 μM): partially dependent on DNA-PKcs | increase of Type I interferon in blood (serum) [3]: augments TLR-7 mediated type I interferon production | IL-12 production after stimulation with TOG [6]: enhanced the increase of IL-12 production | activation of STAT-1 (STAT-1): enchanced activiation | TLR7 signaling (NF-κB, MAP kinases p38 and EKR) [8]: enhanced TLR7 signaling in DC's | DNA-PK activation by the combination of TOG and Mb [7]: increased phosphorylation of substrates and earlier onset of phosphorylation | cytokine production induced by several different TLR-L [4]: potentiated cytokine production

COc1c(C)c2c(c(O)c1C/C=C(\C)CCC(=O)O)C(=O)OC2 [mycophenolic acid]
IL-12 production after stimulation with TOG [6]: enhanced the increase of IL-12 production

IFN-γ
killing of the inoculum (Salmonella): 90-99%

Pam3Cys
protection (survival) of mice from Listeria infection (Listeria monocytogenes): lived longer than controls

PolyI:C
IL-12 ([9]; 5×10^5 cells/ml, minimal optimal concentration: PGS 100 μg/ml, means ± standard errors): 570 ± 62 pg/mL | IL-1b ([9]; PGS 100 μg/ml): 148 ± 27 pg/mL | IL-6 ([9]; PGS 100 μg/ml): 2380 ± 657 pg/mL | IL-10 ([9]; PGS 100 μg/ml): 1374 ± 237 pg/mL | KC ([9]; chemokine, PGS 100 μg/ml): 349 ± 62 pg/mL | systemic adjuvant activity for vaccination (BALB/c mice; mouse, in vivo): effective systemic adjuvants | IgGl (BALB/c mice; serum, week 6, OVA 20 ug + TLR ligand i.d. day 0 and day 7, PGS 50 ug, PolyI:C 50 ug, LPS 20 ug, ISS-ODN 50 ug): 18853 ± 2439 U/ml | IgG2a (BALB/c mice; serum, week 6, OVA 20 ug + TLR ligand i.d. day 0 and day 7, PGS 50 ug, PolyI:C 50 ug, LPS 20 ug, ISS-ODN 50 ug, n.d.=none detected): 2642 ± 380 U/ml | IFNg (BALB/c mice; [11]): 672 ± 322 pg/mL | IL-5 (BALB/c mice; [11]): 236 ± 87 pg/mL

m-ODN: control mutated ODN 5′-TGACTGTGAAGGTTAGAGATGA-3′ that lacks ISS activity (DNA, all phosphorothioate, methylation of C not given here)
CTL response (mice [10]): did not demonstrate an increased IFN-γ or CTL response | splenocyte IFN-γ response (mice [10]): did not demonstrate an increased IFN-γ or CTL response
